# In US10668168B2, “Method for removing weakly bound functional moieties from cell targeting conjugates” (priority 2015, dated 2020):
# Tested on: NBD-4Py-Lx-trastuzumab conjugate
# Assay: Stripping efficiency of S- and N-donors: released NBD label from trastuzumab conjugate
# Assay type: physicochemical
# Settings: agent 10 mM final, 37 °C, 30 minutes stripping
# Experimental: The percentage of released NBD label (excitation and emission wavelength of 485 nm and 535 nm, respectively) was determined spectrophotometrically. The conjugation mixture was precipitated with 2 volume equivalents acetonitrile followed by centrifugation of the formed suspension (5 minutes, 14K rpm). By measuring the fluorescence of the supernatant, the percentage of released NBD label was determined.
# NBD-4Py-Lx-Cl (133 microliters, 5 mM in 20 mM NaCl, 20 equiv.) was added to a solution of trastuzumab, used in its commercial formulation, (238 microliters, 21 mg/ml) and HEPES buffer (12.3 microliters, pH 7.47, 20 mM final concentration). The mixture was placed in a THERMOMIXER® at 37° C. for 4 hours, followed by purification using a prewashed PD10 column which was eluted with 0.9% NaCl. The purified conjugate was incubated with PBS or the S and N-donors as listed above (10 mM final concentration) in a THERMOMIXER® at 37° C. for 30 minutes. With size exclusion chromatography conjugation was clearly observed. Furthermore no aggregation was observed. The NBD/mAb ratio of all the conjugates were between 4.0 and 4.2.
# The percentage of the released NBD label was determined as described in Example B.
row,SMILES,Released label (%)
1,N[C@@H](Cc1c[nH]cn1)C(=O)O [Histidine],5.9%
2,"N#C[S-].[K+] [KSCN, potassium thiocyanate]",35.9%
3,N[C@@H](CS)C(=O)O [L-cysteine],36.4%
4,CSCC[C@H](NC(C)=O)C(=O)O [N-acetyl-1-methionine],12.2%
5,"O=S([O-])([O-])=S.[Na+].[Na+] [NaSTS, sodium thiosulfate]",52.4%
